Tests used:
Glutamate NMDA receptor = test: Binding affinity by measuring displacement of [3H]CPP from NMDA receptor in rat cortical slice preparation
[1] = molecular target: Glutamate receptor ionotropic, kainate; test: Binding affinity by measuring displacement of [3H]KAIN from Ionotropic glutamate receptor kainate in rat cortical slice preparation
[2] = molecular target: Glutamate receptor ionotropic, AMPA (Rattus norvegicus, UniProt P19490+P19491+P19492+P19493); test: Binding affinity by measuring displacement of [3H]AMPA from Ionotropic glutamate receptor AMPA in rat cortical slice preparation
[3] = molecular target: Glutamate receptor ionotropic, AMPA (Rattus norvegicus) (UniProt P19491+P19492+P19493+P19490); test: Binding affinity by measuring displacement of [3H]AMPA from Ionotropic glutamate receptor AMPA in rat cortical slice preparation at 100 uM

Cc1o[nH]c(=O)c1C(N)C(=O)O (configuration not stated)
IC50 (Glutamate NMDA receptor): 4.5 µM | IC50 [1]: > 100 µM | IC50 [2]: > 100 µM

Cc1onc(OCC(=O)O)c1C(N)C(=O)O (configuration not stated)
IC50 (Glutamate NMDA receptor): > 100 µM | IC50 [1]: > 100 µM | IC50 [2]: > 100 µM

C=C(C)[C@H]1CN[C@H](C(=O)O)[C@H]1CC(=O)O [KAINIC ACID]
IC50 (Glutamate NMDA receptor): > 100 µM

NC(Cc1c(OCC(=O)O)noc1C(F)(F)F)C(=O)O (configuration not stated)
IC50 (Glutamate NMDA receptor): > 100 µM | IC50 [1]: > 100 µM | IC50 [2]: > 100 µM | inhibition [3]: 40%

O=C(O)COc1noc2c1CC(C(=O)O)NC2 (configuration not stated)
IC50 (Glutamate NMDA receptor): 16 µM | IC50 [1]: > 100 µM | IC50 [2]: > 100 µM

Cc1onc(OCC(=O)O)c1CC(N)C(=O)O (configuration not stated)
IC50 (Glutamate NMDA receptor): > 100 µM | IC50 [1]: > 100 µM | IC50 [2]: 90 µM
